Measurements taken from PubChem BioAssay AID179 (DTP/NCI, 2004).
Activity calls are given as the source filed them.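 Rule for the calls: active = compounds giving half or more protection of infected cells from virus-caused growth loss, again on retest; inactive = the rest.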

Test system: CEM cells HIV-1 protection, formazan growth assay
Assay: NCI AIDS Antiviral Assay
Conditions: for IC50: measured here: growth of uninfected CEM cells
Method in brief: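 Human CEM cells, uninfected and HIV-1-infected, exposed to five drug concentrations; growth measured by soluble formazan assay and scored as percent protection from infection, with protecting compounds retested.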

Structure (SMILES) | EC50 | IC50 | outcome
CC(CC(=O)O)CC(=O)OC[C@]12CC[C@@H](C(C)C)[C@@H]1[C@H]1CC[C@@H]3[C@@]4(C)CC[C@H](OC(=O)CC(C)CC(=O)O)C(C)(C)[C@@H]4CC[C@@]3(C)[C@]1(C)CC2 (some centres undefined) | > 200 µM | 16.6 µM | –
Cc1cc(C)cc(N(C2C3CCC(C)(C2O)C3(C)C)S(=O)(=O)c2ccccc2)c1 (centres undefined) | > 200 µM | 24.5 µM | –
CC(/C=C/NNC1=NC(c2ccccc2)C(c2ccccc2)=NN1)Sc1ccccc1N (centres undefined) | > 81.3 µM | 1.45 µM | –
O=C(O)CCC(NC(=O)c1ccc(CNc2nc3ccccc3nc2C(=O)O)cc1)C(=O)O (centres undefined) | > 200 µM | > 200 µM | –
C=C(C)[C@@]1(O)CCC[C@H]1NC(=O)OC(C)(C)C | > 200 µM | > 200 µM | –
CCOC(=O)/C=C1/Oc2ccccc2C1(C)O (centres undefined) | > 42.7 µM | > 42.7 µM | –
CCCCCCC(C)c1ccc2c(c1)C(=O)c1nc3ccncc3c(=O)n1-2 (centres undefined) | > 200 µM | 0.955 µM | –
N#CCCN(CCC#N)c1ccc(/C=C2\N=C(c3ccccc3)N(c3ccccc3)C2=O)cc1 | > 200 µM | 7.76 µM | –
Cc1cc(C)c(S(=O)(=O)ONC(=O)OC(C)(C)C)c(C)c1 | – | – | inactive
CC(Cl)(/C=C/Cl)C(Cl)/C=C/C(Cl)(CCl)CBr (centres undefined) | – | – | inactive
CCOC(=O)C(=O)CC1=CC=CC2=NC(=O)CCN12 | > 200 µM | > 200 µM | –
CC(=O)c1c2c(cc3c1CCC3)CCC2 | > 200 µM | > 200 µM | –
NC(N)=N/N=C/c1ccc[nH]1 | > 200 µM | > 200 µM | –
N#C/C(=C\c1ccc(C#N)cc1)C(=O)O | > 36.3 µM | > 36.3 µM | –
Nc1c(-c2ccccc2[N+](=O)[O-])nc2ccccn12 | > 513 µM | 120 µM | –
CCCCOc1cc(C[S+]2CCCC2)c(OC)cc1C[S+]1CCCC1 | > 145 µM | 14.8 µM | –
O=C1N=C(SC2OC(CO)C(O)C(O)C2O)S/C1=C\c1ccccc1 (centres undefined) | – | – | inactive
CC(=O)O[C@H]1C=CC23OC(=O)[C@]1(C)[C@H]2[C@H](C(=O)O)C12CC(=O)[C@@](CO)(CC[C@H]13)C2 | – | – | inactive
CC(=O)Nc1nc(NC(C)=O)c(N=O)c(NC(C)=O)n1 | > 200 µM | 115 µM | –
CN(C)CCCN1CCC2(CCCCC2)CC1 | – | – | inactive
CCCNC(=O)OCCCOC(=O)/C=C(\C(=O)OCCCOC(=O)NCCC)N1[C@H](C)Cc2c(-c3cc(-c4cc(-c5c(O)cc(O)c6c5C[C@@H](C)N[C@@H]6C)c5cc(C)cc(OC)c5c4O)c(O)c4c(OC)cc(C)cc34)c(O)cc(O)c2[C@H]1C | > 25.1 µM | > 25.1 µM | –

Structure (SMILES) | EC50 | IC50 | outcome
COc1ccc2nc3c([N+](=O)[O-])ccc(NCCN(C)C)c3c(N)c2c1 | > 200 µM | 0.794 µM | –
Cc1ccc(C)c(NC(=O)CCc2n[nH]c(=S)o2)c1 | > 9.33 µM | > 9.33 µM | –
Cc1ccc(OCC2OC(n3cnc4c(Cl)nc(Nc5cc(Cl)cc(Cl)c5)nc43)CC2Oc2ccc(C)cc2)cc1 (centres undefined) | > 200 µM | > 200 µM | –
COc1cc(C[C@H]2c3cc(OC)c(OC)cc3CCN2C)c(Oc2cc3c(cc2OC)-c2c(OC)c(OC)cc4c2[C@H](C3)N(C)CC4)cc1OC | – | – | inactive
CCOC(=O)C(C)NC(=O)C(C)NC(=O)C(C)NC(=O)C(C)NC(=O)C(C)NC(=O)OCc1ccccc1 (centres undefined) | > 200 µM | > 200 µM | –
O=C(/C=C\c1ccc(Cl)c(Cl)c1)c1cccs1 | > 200 µM | 10.2 µM | –
O=C(CCCC[n+]1ccccc1)Sc1ccccc1C(=O)Nc1ccc(S(=O)(=O)c2ccc([N+](=O)[O-])cc2)cc1 | 7.59 µM | 138 µM | –
Cc1ccc(S(=O)(=O)/N=S(\C)c2cccc(Cl)c2)cc1 (centres undefined) | > 200 µM | 170 µM | –
CCC1(O)N=C(c2ccccc2)c2ccccc2-n2cccc21 (centres undefined) | > 200 µM | 166 µM | –
O=c1/c(=C/c2ccccc2[N+](=O)[O-])sc2nc3ccccc3n12 | > 3.24 µM | > 3.24 µM | –
COc1cc(CCNC(C)=O)cc(OC)c1OC | > 200 µM | > 200 µM | –
O=C1C2CCC3C1C(C(=O)O)C(C(=O)O)C23 (centres undefined) | > 200 µM | > 200 µM | –
CSC1CC2C(CC1(C)SC)C2(C)C (centres undefined) | > 155 µM | > 155 µM | –
CN(C)c1ccc(/C=C(\C#N)c2ccccc2Cl)cc1 | > 15.8 µM | 4.47 µM | –
Cc1nn(C(=O)c2ccccc2O)c2c1C(c1ccccc1O)SC(N)=N2 (centres undefined) | > 2 µM | 0.933 µM | –
CCCCCCCC(=O)OCC(C[As](=O)(O)O)OC(=O)CCCCCCC (centres undefined) | > 200 µM | 15.1 µM | –
C[N+](C)(C)CC1CCCC/C1=N\O (centres undefined) | > 794 µM | > 794 µM | –
CC1=C/C(=C(/c2ccccc2S(=O)(=O)O)c2cc(C)c(O)c(CN(CC(=O)O)CC(=O)O)c2C)C(C)=C(CN(CC(=O)O)CC(=O)O)C1=O | – | – | inactive
Brc1ccc(CCNCCN2CCCCC2)cc1 | > 102 µM | 29.5 µM | –
CCOC(=O)N(CCCCCCNC(c1ccccc1)S(=O)(=O)O)c1ccccc1 (centres undefined) | > 200 µM | 1.82 µM | –
CCCCCSCCCCCCCC(=O)OCC1OC(n2cc(C)c(=O)[nH]c2=O)CC1N=[N+]=[N-] (centres undefined) | – | 91.2 µM | active

Structure (SMILES) | EC50 | IC50 | outcome
O=C(c1ccccc1)c1ccc(COc2ccc(C(c3c(O)c4ccccc4oc3=O)c3c(O)c4ccccc4oc3=O)cc2)cc1 | > 200 µM | 35.5 µM | –
N#Cc1ccsc1C#N | > 200 µM | > 200 µM | –
CN1NC2=NCCN=C3NN(C)C(=NCCN=C1S2)S3 | – | > 200 µM | inactive
NNC(=O)C1C2c3ccccc3C(c3ccccc32)C1C(=O)O (centres undefined) | > 200 µM | > 200 µM | –
CC(=O)NN1CCN(C)CC1 | > 200 µM | > 200 µM | –
Nc1ccn(C2CC(O)C(COP(=O)(O)OC3C(COP(=O)(O)O)OCC3n3cnc4c(N)ncnc43)O2)c(=O)n1 (centres undefined) | > 200 µM | > 200 µM | –
COc1c(O)c2c(=O)cc(OC)c3c4c(OC)cc(=O)c5c(O)c(OC)c6c(c(c1CC(C)=C6OC(C)=O)c23)c54 | > 4.79 µM | 1.29 µM | –
O=S(OO)c1cc(Cl)c(O)c(Cl)c1 (centres undefined) | > 1020 µM | > 1020 µM | –
COc1cc(O)c2c(=O)c(O)c(-c3ccc(O)c(O)c3)oc2c1 | > 93.3 µM | 47.9 µM | –
CCCC(=O)N[C@H]1C2C3CC4C5CC(C42)C1(C)C53 (some centres undefined) | > 275 µM | > 275 µM | –
Cn1c(=O)ccc2cc(C(=O)c3ccccc3)ccc21 | > 191 µM | 39.8 µM | –
CCCCCCCCCCCCCCCCOCC(Cl)COP(=O)(O)OP(=O)(O)OCC1OC(n2cnc3c(N)ncnc32)C(O)C1O (centres undefined) | > 100 µM | > 100 µM | –
CN(C)c1ccc(/C=C/c2ccc(/C=C/c3ccc(N(C)C)cc3)cc2)cc1 | – | – | inactive
CC1(C)Oc2ccccc2[N+]([O-])=C1c1ccccc1 | > 141 µM | > 141 µM | –
O=C1C2C3CCC(C3)C2C(=O)C2C3CCC(C3)C12 (centres undefined) | > 200 µM | 186 µM | –
COC1=CC(=O)C2C(C1=O)[C@@H]1c3ccccc3OC(C)(C)[C@H]21 (some centres undefined) | > 166 µM | 16.2 µM | –
O=C1Nc2cc(Cl)ccc2C(=O)N2CCC[C@@H]12 | > 200 µM | > 200 µM | –
O=C(/C=C/c1ccc(O)c(O)c1)Oc1ccccc1 | > 200 µM | 9.33 µM | –
CCOC1N(C2C=CC(CO)O2)C(=O)NC(=O)C1(C)Br (centres undefined) | > 13.5 µM | > 13.5 µM | –
